Assay results published in ChEMBL document CHEMBL4825690, “Synthesis and biological evaluation of chalcone-polyamine conjugates as novel vectorized agents in colorectal and prostate cancer chemotherapy” (Eur J Med Chem, 2021).
Calls of active or inactive are those of the source. The calls are words filed in the database; no cut-off is given here.

Assays:
[1] = system: PC-3; assay: Induction of apoptosis in human PC-3 cells assessed as late apoptotic cells incubated for 48 hrs by annexin-V/FITC and propidium iodide staining based flow cytometry analysis (reference value: 2.13 %); format: functional
[2] = system: DU-145; assay: Induction of apoptosis in human DU-145 cells assessed as increase in cleaved PARP protein expression by Western blot assay; format: functional, cell-based
[3] = system: HCT-116; assay: Induction of apoptosis in human HCT-116 cells assessed as viable cells incubated for 48 hrs by annexin-V/FITC and propidium iodide staining based flow cytometry analysis (reference value: […] %); format: functional
[4] = system: HT-29; assay: Induction of apoptosis in human HT-29 cells assessed as increase in DNA fragmentation after 48 hrs by ELISA relative to control; format: functional
[5] = system: HCT-116; assay: Induction of cell cycle arrest in human HCT-116 cells assessed as accumulation at G2 phase at IC50 incubated for 48 hrs by RNaeA/propidium iodide based flow cytometry analysis (reference value: 17.76 %); format: functional
[6] = system: HT-29; assay: Induction of cell cycle arrest in human HT-29 cells assessed as increase in p21 expression by Western blot analysis; format: functional, cell-based
[7] = system: PC-3; assay: Induction of cell cycle arrest in human PC-3 cells assessed as decrease in cyclin A2 expression by Western blot analysis; format: functional, cell-based
[8] = system: HCT-116; assay: Induction of cell cycle arrest in human HCT-116 cells assessed as reduction in CDK2 expression by Western blot analysis; format: functional, cell-based
[9] = system: HCT-116; assay: Induction of apoptosis in human HCT-116 cells assessed as necrotic cells incubated for 48 hrs by annexin-V/FITC and propidium iodide staining based flow cytometry analysis (reference value: 7.22 %); format: functional
[10] = system: PC-3; assay: Induction of apoptosis in human PC-3 cells assessed as increase in DNA fragmentation after 48 hrs by ELISA relative to control; format: functional
[11] = system: HT-29; assay: Induction of cell cycle arrest at G1 phase in human HT-29 cells assessed as reduction in Cyclin D1 expression by Western blot analysis; format: functional, cell-based
[12] = system: DU-145; assay: Induction of apoptosis in human DU-145 cells assessed as necrotic cells incubated for 48 hrs by annexin-V/FITC and propidium iodide staining based flow cytometry analysis (reference value: 0.04 %); format: functional
[13] = system: HCT-116; assay: Induction of apoptosis in human HCT-116 cells assessed as increase in cleaved PARP protein expression by Western blot assay; format: functional, cell-based
[14] = system: HT-29; assay: Induction of apoptosis in human HT-29 cells assessed as decrease in pro-caspase-3 expression by Western blot assay; format: functional, cell-based
[15] = system: PC-3; assay: Induction of apoptosis in human PC-3 cells assessed as necrotic cells incubated for 48 hrs by annexin-V/FITC and propidium iodide staining based flow cytometry analysis (reference value: 0.54 %); format: functional
[16] = system: HCT-116; assay: Induction of cell cycle arrest in human HCT-116 cells assessed as increase in Cyclin E2 expression by Western blot analysis; format: functional, cell-based
[17] = system: DU-145; assay: Induction of cell cycle arrest in human DU-145 cells assessed as increase in p21 expression by Western blot analysis; format: functional, cell-based
[18] = system: HCT-116; assay: Induction of cell cycle arrest in human HCT-116 cells assessed as increase in p21 expression by Western blot analysis; format: functional, cell-based
[19] = system: PC-3; assay: Induction of cell cycle arrest in human PC-3 cells assessed as increase in p21 expression by Western blot analysis; format: functional, cell-based
[20] = system: HCT-116; assay: Induction of apoptosis in human HCT-116 cells assessed as late apoptotic cells incubated for 48 hrs by annexin-V/FITC and propidium iodide staining based flow cytometry analysis (reference value: 7.22 %); format: functional
[21] = system: HCT-116; assay: Induction of apoptosis in human HCT-116 cells assessed as increase in caspase-3 level by Western blot assay; format: functional, cell-based
[22] = system: HT-29; assay: Induction of cell cycle arrest in human HT-29 cells assessed as accumulation at G2 phase at IC50 incubated for 48 hrs by RNaeA/propidium iodide based flow cytometry analysis (reference value: 13..16 %); format: functional
[23] = system: PC-3; assay: Induction of apoptosis in human PC-3 cells assessed as decrease in pro-caspase-3 expression by Western blot assay; format: functional, cell-based
[24] = system: DU-145; assay: Induction of apoptosis in human DU-145 cells assessed as increase in caspase-3 level by Western blot assay; format: functional, cell-based
[25] = system: HT-29; assay: Induction of apoptosis in human HT-29 cells assessed as decrease in PARP protein expression by Western blot assay; format: functional, cell-based
[26] = system: PC-3; assay: Induction of cell cycle arrest in human PC3 cells assessed as accumulation at S phase at IC50 incubated for 48 hrs by RNaeA/propidium iodide based flow cytometry analysis (reference value: 33.66 %); format: functional
[27] = system: HT-29; assay: Induction of apoptosis in human HT-29 cells assessed as early apoptotic cells incubated for 48 hrs by annexin-V/FITC and propidium iodide staining based flow cytometry analysis (reference value: 3.37%); format: functional
[28] = system: HT-29; assay: Induction of apoptosis in human HT-29 cells assessed as viable cells incubated for 48 hrs by annexin-V/FITC and propidium iodide staining based flow cytometry analysis (reference value: 83.56 %); format: functional
[29] = system: HT-29; assay: Induction of cell cycle arrest in human HT-29 cells assessed as accumulation at S phase at IC50 incubated for 48 hrs by RNaeA/propidium iodide based flow cytometry analysis (reference value: 32.45 %); format: functional
[30] = system: HCT-116; assay: Induction of apoptosis in human HCT-116 cells assessed as increase in DNA fragmentation after 48 hrs by ELISA relative to control; format: functional
[31] = system: PC-3; assay: Induction of cell cycle arrest in human PC3 cells assessed as accumulation at G1 phase at IC50 incubated for 48 hrs by RNaeA/propidium iodide based flow cytometry analysis (reference value: 42.61 %); format: functional
[32] = system: PC-3; assay: Induction of cell cycle arrest in human PC3 cells assessed as accumulation at G2 phase at IC50 incubated for 48 hrs by RNaeA/propidium iodide based flow cytometry analysis (reference value: 23.73 %); format: functional
[33] = system: DU-145; assay: Induction of apoptosis in human DU-145 cells assessed as increase in DNA fragmentation after 48 hrs by ELISA relative to control; format: functional
[34] = system: HT-29; assay: Induction of cell cycle arrest in human HT-29 cells assessed as accumulation at G1 phase at IC50 incubated for 48 hrs by RNaeA/propidium iodide based flow cytometry analysis (reference value: 54.39 %); format: functional
[35] = system: HCT-116; assay: Induction of apoptosis in human HCT-116 cells assessed as decrease in pro-caspase-3 expression by Western blot assay; format: functional, cell-based
[36] = system: DU-145; assay: Induction of cell cycle arrest in human DU-145 cells assessed as accumulation at sub-G1 phase at IC50 incubated for 48 hrs by RNaeA/propidium iodide based flow cytometry analysis (reference value: 0 %); format: functional
[37] = system: PC-3; assay: Antiproliferative activity against human PC3 cells assessed as reduction in cell viability incubated for 48 hr by MTT assay; format: functional, cell-based; conditions: PC-3, 48 h
[38] = system: HCT-116; assay: Induction of cell cycle arrest in human HCT-116 cells assessed as increase in Cyclin D1 expression by Western blot analysis; format: functional, cell-based
[39] = system: HT-29; assay: Induction of apoptosis in human HT-29 cells assessed as necrotic cells incubated for 48 hrs by annexin-V/FITC and propidium iodide staining based flow cytometry analysis (reference value: 3.52%); format: functional
[40] = system: HT-29; assay: Induction of apoptosis in human HT-29 cells assessed as increase in cleaved PARP protein expression by Western blot assay; format: functional, cell-based
[41] = system: PC-3; assay: Induction of cell cycle arrest in human PC-3 cells assessed as decrease in cyclin B1 expression by Western blot analysis; format: functional, cell-based

Q: What does the source list for `COc1cc(C(=O)/C=C/c2ccc(OCCCNCCCNCCCCN)cc2)cc(OC)c1OC`?
A: Activity [1]: 12.65%; Activity [2]: Active; Activity [3]: 52.13%; fold change (FC) [4]: 2.07; Activity [5]: 19.93%; Activity [6]: Active; Activity [7]: Active; Activity [8]: Active; Activity [9]: 3.35%; fold change (FC) [10]: 6.53; Activity [11]: Active; Activity [12]: 0.05%; Activity [13]: Active; Activity [14]: Active; Activity [15]: 2.63%; Activity [16]: Active; Activity [17]: Active; Activity [18]: Active; Activity [19]: Active; Activity [20]: 21.6%; Activity [21]: Active; Activity [22]: 13.32%; Activity [23]: Active; Activity [24]: Active; Activity [25]: Active; Activity [26]: 22.17%; Activity [27]: 11.04%; Activity [28]: 56.67%; Activity [29]: 26.03%; fold change (FC) [30]: 4.72; Activity [31]: 19.12%; Activity [32]: 58.17%; fold change (FC) [33]: 4.88; Activity [34]: 60.65%; Activity [35]: Active; Activity [36]: 9.28%; IC50 [37]: 13.7 µM; Activity [38]: Active; Activity [39]: 0.6%; Activity [40]: Active; Activity [41]: Active
